Assay results taken from patent publication US6169083A, “Preventives/remedies for stomatitis” (Zeria Pharmaceutical Co., Ltd., priority 1996, dated 2001).

What was measured:
[1] = Clinical examples: treatment of stomatitis in cancer patients subjected to chemotherapy and/or radiotherapy; assay type: in vivo, patient
Excerpt: Examples (Clinical Examples):
The frequency indicated in each example indicates a symptomatic process and was judged on the basis of the side effect standard by the Japanese Cancer Association. The frequency and symptom thereof are as follows, and a higher frequency indicates a severer symptom. […]

[2] = tested on: rats; assay: Acute toxicity (oral administration to rats); assay type: in vivo
Description: (2) The LD50 value of the sodium alginate was 5,000 mg/kg as determined by oral administration to rats.

With `NCCC(=O)[N-][C@@H](Cc1c[nH]cn1)C(=O)[O-].[Zn+2]` [crystalline L-carnosine zinc salt, L-carnosine zinc salt] the “clinical outcome of stomatitis” value ([1]; Example 1, suspension 150 mg/100 ml, 5 ml, 5 or 6 times a day, 8 days) was “the erosion and ulcer arisen on the intraoral mucosa were completely healed”, the “clinical outcome of stomatitis” value ([1]; Example 2, suspension 450 mg/100 ml, 5 ml, 2 to 4 times a day 6 days, then 3 days, swab additional 2 days) was “the ulcer arisen on the intraoral mucosa and angulus oris was completely healed, and the patient became able to ingest a solid diet” and the “clinical outcome of stomatitis” value ([1]; Example 3, suspension 300 mg/100 ml, 5 ml, twice a day, 10 days) was “the ulcer arisen on the intraoral mucosa was completely healed, and the patient became able to ingest a solid diet”. The “clinical outcome of stomatitis” value ([1]; Example 12, ointment 150 mg in plastibase 100 g, swab, 3 to 5 times a day, 9 days) was “the ulcer in the oral cavity was completely healed, and the patient became able to ingest a solid diet” and the LD50 [2] was 8,441 mg/kg.
With sodium alginate [reference compound] the LD50 [2] was 5,000 mg/kg.
